Results taken from ChEMBL document CHEMBL1201862, “PubChem BioAssay data set” (2004).
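All cell lines were grown in 96-well plates and treated with compound for 48 hours. GI50: concentration for 50% inhibition of growth.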 The source made the active and inactive calls. No stated cut-off is given here; in the data, active = GI50 up to about 1.1 µM and inactive = higher.

Tests used:
Assay in all cases: DTP human tumour cell line panel, 48 h
[1] = test system: SN12C
[2] = test system: OVCAR-3
[3] = test system: U-251
[4] = test system: CCRF-CEM
[5] = test system: ACHN
[6] = test system: SNB-75
[7] = test system: SNB-19
[8] = test system: KM-20L2
[9] = test system: K562
[10] = test system: DLD-1
[11] = test system: A549
[12] = test system: OVCAR-5
[13] = test system: SK-MEL-28
[14] = test system: NCI-H460
[15] = test system: DMS-273
[16] = test system: LOX IMVI
[17] = test system: MOLT-4
[18] = test system: CAKI-1
[19] = test system: HOP-92
[20] = test system: NCI-H522
[21] = test system: HCT-116
[22] = test system: SW-620
[23] = test system: SK-MEL-5
[24] = test system: TK-10
[25] = test system: Malme-3M
[26] = test system: XF498
[27] = test system: SF-539
[28] = test system: SR
[29] = test system: SF-295
[30] = test system: UACC-62
[31] = test system: SF-268
[32] = test system: KM12
[33] = test system: SK-MEL-2
[34] = test system: UO-31
[35] = test system: COLO 205
[36] = test system: HT-29
[37] = test system: A498
[38] = test system: SNB-78
[39] = test system: NCI-H23
[40] = test system: NCI-H226
[41] = test system: 786-0
[42] = test system: M19-MEL
[43] = test system: RPMI-8226
[44] = test system: HOP-62
[45] = test system: SK-OV-3
[46] = test system: HCC 2998
[47] = test system: OVCAR-8
[48] = test system: M14
[49] = test system: UACC-257
[50] = test system: EKVX
[51] = test system: IGROV-1
[52] = test system: OVCAR-4
[53] = test system: HOP-18
[54] = test system: DMS-114
[55] = test system: MDA-MB-231
[56] = test system: DU-145
[57] = test system: HL-60
[58] = test system: HCT-15
[59] = test system: RXF 393
[60] = test system: MCF7
[61] = test system: NCI/ADR-RES
[62] = test system: Hs-578T
[63] = test system: PC-3
[64] = test system: MDA-MB-435
[65] = test system: MDA-N
[66] = test system: BT-549
[67] = test system: T47D
[68] = test system: LXFL 529

With Cn1cnc([N+](=O)[O-])c1Sc1nccn1-c1ccccc1 the GI50 [1] was 42.3 µM (inactive), the GI50 [2] was 50.5 µM (inactive) and the GI50 [3] was 49.8 µM (inactive). The GI50 [4] was 36.3 µM (inactive), the GI50 [5] was 47.6 µM (inactive) and the GI50 [6] was 71.9 µM (inactive). The GI50 [7] was > 100 µM (inactive), the GI50 [8] was > 100 µM (inactive) and the GI50 [9] was 52.4 µM (inactive). The GI50 [10] was 33.3 µM (inactive), the GI50 [11] was > 100 µM (inactive) and the GI50 [12] was > 100 µM (inactive). For the same compound, the GI50 [13] was 37.8 µM (inactive), the GI50 [14] was 41.4 µM (inactive) and the GI50 [15] was 63.5 µM (inactive). The GI50 [16] was 16.8 µM (inactive), the GI50 [17] was 21.5 µM (inactive) and the GI50 [18] was 97.9 µM (inactive). For the same compound, the GI50 [19] was 22.5 µM (inactive), the GI50 [20] was 11.6 µM (inactive) and the GI50 [21] was 38 µM (inactive). For the same compound, the GI50 [22] was 42.9 µM (inactive), the GI50 [23] was 69.2 µM (inactive) and the GI50 [24] was > 100 µM (inactive). The GI50 [25] was 17.5 µM (inactive), the GI50 [26] was 31.1 µM (inactive) and the GI50 [27] was 68.2 µM (inactive). The GI50 [28] was 21.2 µM (inactive), the GI50 [29] was > 100 µM (inactive) and the GI50 [30] was 35.2 µM (inactive). The GI50 [31] was 66.5 µM (inactive), the GI50 [32] was > 100 µM (inactive) and the GI50 [33] was 21.4 µM (inactive). For the same compound, the GI50 [34] was 22.3 µM (inactive), the GI50 [35] was 33.9 µM (inactive) and the GI50 [36] was 61.1 µM (inactive). The GI50 [37] was > 100 µM (inactive), the GI50 [38] was 26.3 µM (inactive) and the GI50 [39] was 29.9 µM (inactive). For the same compound, the GI50 [40] was 33.7 µM (inactive), the GI50 [41] was > 100 µM (inactive) and the GI50 [42] was 51.8 µM (inactive). For the same compound, the GI50 [43] was 51.3 µM (inactive), the GI50 [44] was > 100 µM (inactive) and the GI50 [45] was > 100 µM (inactive). The GI50 [46] was > 100 µM (inactive), the GI50 [47] was 43.1 µM (inactive) and the GI50 [48] was 44.9 µM (inactive). The GI50 [49] was 37.6 µM (inactive), the GI50 [50] was 44.7 µM (inactive) and the GI50 [51] was 43.1 µM (inactive). The GI50 [52] was 44.6 µM (inactive), the GI50 [53] was 8.85 µM (inactive) and the GI50 [54] was 29.4 µM (inactive).
With COc1ccc(N2C(=O)[C@H]3CC(C)c4c([nH]c5ccccc45)[C@H]3C2=O)cc1 (stereo partly specified) the GI50 [1] was 6.38 µM (inactive), the GI50 [2] was 1.87 µM (inactive) and the GI50 [55] was 6.35 µM (inactive). The GI50 [3] was 3.15 µM (inactive), the GI50 [56] was 4.7 µM (inactive) and the GI50 [4] was 2.49 µM (inactive). For the same compound, the GI50 [5] was 6.92 µM (inactive), the GI50 [6] was 2.03 µM (inactive) and the GI50 [7] was 5.66 µM (inactive). The GI50 [57] was 1.83 µM (inactive), the GI50 [8] was 2.99 µM (inactive) and the GI50 [9] was 1.15 µM (inactive). The GI50 [10] was 3.54 µM (inactive), the GI50 [11] was 5.85 µM (inactive) and the GI50 [12] was 33.7 µM (inactive). For the same compound, the GI50 [13] was 4.82 µM (inactive), the GI50 [14] was 3.69 µM (inactive) and the GI50 [15] was 1.51 µM (inactive). The GI50 [58] was 2.72 µM, the GI50 [16] was 4.6 µM (inactive) and the GI50 [17] was 3.78 µM (inactive). The GI50 [18] was 3.08 µM (inactive), the GI50 [19] was 4.65 µM (inactive) and the GI50 [59] was 1.53 µM (inactive). The GI50 [60] was 2.25 µM (inactive), the GI50 [20] was 1.1 µM (active) and the GI50 [61] was 1.63 µM (inactive). For the same compound, the GI50 [62] was 1.88 µM (inactive), the GI50 [21] was 3.37 µM (inactive) and the GI50 [22] was 2.87 µM (inactive). The GI50 [23] was 2.31 µM (inactive), the GI50 [24] was 9.86 µM (inactive) and the GI50 [25] was 2.11 µM (inactive). For the same compound, the GI50 [26] was 4.76 µM (inactive), the GI50 [27] was 2.77 µM (inactive) and the GI50 [28] was 2.15 µM (inactive). For the same compound, the GI50 [29] was 1.74 µM (inactive), the GI50 [30] was 1.31 µM (inactive) and the GI50 [31] was 10.3 µM (inactive). For the same compound, the GI50 [32] was 2.77 µM (inactive), the GI50 [33] was 2.24 µM (inactive) and the GI50 [34] was 5.61 µM (inactive). The GI50 [35] was 2.5 µM (inactive), the GI50 [36] was 2.92 µM (inactive) and the GI50 [63] was 1.66 µM (inactive). For the same compound, the GI50 [64] was 0.611 µM (active), the GI50 [37] was 8.15 µM (inactive) and the GI50 [65] was 0.681 µM (active). For the same compound, the GI50 [38] was 5.08 µM (inactive), the GI50 [39] was 3.8 µM (inactive) and the GI50 [40] was 5.66 µM (inactive). For the same compound, the GI50 [41] was 3.48 µM (inactive), the GI50 [42] was 2.13 µM (inactive) and the GI50 [43] was 3.48 µM (inactive). The GI50 [44] was 2.15 µM (inactive), the GI50 [45] was 2.4 µM (inactive) and the GI50 [46] was 3.65 µM (inactive). For the same compound, the GI50 [47] was 5.64 µM (inactive), the GI50 [48] was 2.48 µM (inactive) and the GI50 [49] was 4.6 µM (inactive). For the same compound, the GI50 [50] was 24 µM (inactive), the GI50 [51] was 4.41 µM (inactive) and the GI50 [52] was 5.98 µM (inactive). For the same compound, the GI50 [66] was 8.83 µM (inactive), the GI50 [67] was 4.26 µM (inactive) and the GI50 [54] was 2.01 µM (inactive). For the same compound, the GI50 [68] was 4.14 µM (inactive).
